We go through two compounds from US8664408B2, “Synthesis process, and crystalline form of 4-{3-[cis-hexahydrocyclopenta[c]pyrrol-2(1H)-yl]proxy}benzamide hydrochloride and pharmaceutical compositions containing it” (Les Laboratoires Servier, priority 2011, dated 2014).

A short description of data set [1]: dissolution of crystalline form I. The data set is classed as physicochemical. From the text: Obtaining this crystalline form has the advantage of allowing especially rapid and efficient filtration and also the preparation of pharmaceutical formulations having a consistent and reproducible composition, which is especially advantageous when those formulations are intended for oral administration.

Data set [2] relates to central nervous system. Put plainly: pharmacological study. From the text:
Neurodegenerative diseases more especially targeted are Alzheimer's disease, Parkinson's disease, Pick's disease, Korsakoff's disease, Lewy body dementias, frontal and subcortical dementias, frontotemporal dementias and vascular dementias.

Data set [3] in a line: storage stability of crystalline form I. The settings on record: periods of up to 18 months. The format is physicochemical. From the text: The form thereby obtained is sufficiently stable to allow its storage for an extended period without particular conditions for temperature, light, humidity or oxygen levels.

Take `Cl.NC(=O)c1ccc(OCCCN2C[C@H]3CCC[C@H]3C2)cc1` [4-{3-[cis-Hexahydrocyclopenta[c]pyrrol-2(1H)-yl]propoxy}benzamide hydrochloride]: in data set [1], the dissolution properties entry is “noteworthy properties of immediate dissolution”. In addition, the “activity on the central nervous system” value in data set [2] is recorded as “substantial activity”. For the same compound, the stability on storage result in data set [3] (at 25° C. with a humidity level of 60% in a double bag of polyethylene), in data set [3] (at 30° C. with a humidity level of 65% in a double bag of polyethylene) and in data set [3] (at 30° C. with a humidity level of 85% in a double bag of polyethylene) was “very stable” throughout.

Turning to `NC(=O)c1ccc(OCCCN2C[C@H]3CCC[C@H]3C2)cc1` [form I of its free base, 4-{3-[cis-Hexahydrocyclopenta[c]pyrrol-2(1H)-yl]propoxy}benzamide], the “activity on the central nervous system” value in data set [2] is “substantial activity”.
